# Source: ChEMBL document CHEMBL1201862, “PubChem BioAssay data set” (2004)
# Active and inactive are the calls of the source. No stated cut-off is given here; in the data, actives have a measured IC50 and inactives only a lower limit.
# Target: Envelope glycoprotein gp160 (Human immunodeficiency virus 1, UniProt Q6QLK5)
# Assay: inhibitors of HIV fusion peptide binding, primary screen, biochemical, uHTS, fluorescence dequenching (AID 1986)
# Envelope glycoprotein gp160, sequence (Q6QLK5 whole entry, the tested form may be a part): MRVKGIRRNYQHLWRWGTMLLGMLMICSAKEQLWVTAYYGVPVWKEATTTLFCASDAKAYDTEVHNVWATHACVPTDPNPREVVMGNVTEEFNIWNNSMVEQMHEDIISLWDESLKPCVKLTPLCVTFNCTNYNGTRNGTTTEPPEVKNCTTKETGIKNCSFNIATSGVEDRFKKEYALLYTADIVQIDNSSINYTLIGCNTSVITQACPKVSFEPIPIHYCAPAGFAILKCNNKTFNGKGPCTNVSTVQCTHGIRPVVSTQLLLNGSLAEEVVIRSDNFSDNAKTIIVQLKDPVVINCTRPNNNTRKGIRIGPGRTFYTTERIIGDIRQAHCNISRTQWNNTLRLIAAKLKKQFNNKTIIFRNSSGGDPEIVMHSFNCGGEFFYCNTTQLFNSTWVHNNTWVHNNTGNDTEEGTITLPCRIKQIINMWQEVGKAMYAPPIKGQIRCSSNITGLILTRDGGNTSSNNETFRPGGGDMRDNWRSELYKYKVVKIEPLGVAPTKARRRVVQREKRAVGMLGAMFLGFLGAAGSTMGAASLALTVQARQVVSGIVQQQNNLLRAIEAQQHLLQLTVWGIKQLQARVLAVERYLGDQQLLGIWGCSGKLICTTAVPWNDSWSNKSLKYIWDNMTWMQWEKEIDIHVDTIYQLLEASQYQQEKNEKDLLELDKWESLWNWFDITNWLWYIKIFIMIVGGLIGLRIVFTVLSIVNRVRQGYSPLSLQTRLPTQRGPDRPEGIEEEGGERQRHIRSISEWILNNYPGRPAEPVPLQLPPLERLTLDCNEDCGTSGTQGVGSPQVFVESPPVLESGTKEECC
row,Compound,IC50
1,O=C(O)C1Nc2c(cccc2C(F)(F)F)C2C=CCC12 (stereo not given),12.7 µM (active)
2,O=C(O)c1[nH]c2ccccc2c1C(c1cc(Cl)cc([N+](=O)[O-])c1O)c1c(C(=O)O)[nH]c2ccccc12,2.55 µM (active)
3,CCC(Sc1nc2ccsc2c(=O)n1Cc1ccc(C(=O)O)cc1)C(=O)Nc1ccc(C)c(Cl)c1 (stereo not given),20 µM (active)
4,COc1cc(/C=N/NC(=O)C(Cc2c[nH]c3ccccc23)NC(=O)OCc2ccccc2)cc([N+](=O)[O-])c1O (stereo not given),17.2 µM (active)
5,COc1cc(/C=N/NS(=O)(=O)c2ccc3ccccc3c2)ccc1OCc1ccc(C(=O)O)cc1,27 µM (active)
